According to patent US20230150981A1, “N-HETEROARYLALKYL-2-(HETEROCYCLYL AND HETEROCYCLYLMETHYL) ACETAMIDE DERIVATIVES AS SSTR4 AGONISTS” (Takeda Pharmaceutical Compnay Limited, priority 2020, published 2023):

Legend:
SSTR4 [1] = molecular target: T1, SSTR4 (Homo sapiens, UniProt P31391); test: Inhibition of forskolin stimulated cAMP in CHO-K1 cells overexpressing SSTR4; type: cell-based; details: read-out: SSTR4 Activity pEC50 (converted)
T1 construct: host or cells: CHO-K1
Outline: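 CHO-K1 cells overexpressing SSTR4 treated 30 min at room temperature with compound in Krebs Ringer buffer containing 0.5% BSA, 300 μM IBMX and 350 nM forskolin. Intracellular cAMP measured by HTRF LANCE Ultra (665/615 nm); pEC50 values reported.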

SSTR4 [2] = molecular target: T1, SSTR4; test: SSTR4 I-125 somatostatin competition binding assay (CHO-K1 membranes); details: competition with I-125 somatostatin, membranes from CHO-K1 overexpressing SSTR4; read-out: SSTR4 Binding pIC50 (converted)
Outline: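 CHO-K1 membranes overexpressing SSTR4 (1 μg/well) were incubated 60 min at room temperature with compound and I-125 somatostatin (0.2 nM in the compound mix) in 25 mM HEPES pH 7.4, 10 mM MgCl2, 1 mM CaCl2, 0.5% BSA. Bound radioligand was collected on PEI-soaked filters and scintillation-counted, with results reported as pIC50.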

SSTR1 = molecular target: T2, SSTR1 (Homo sapiens, UniProt P30872); test: SSTR1 I-125 somatostatin competition binding assay for selectivity versus SSTR1 (CHO-K1 membranes); details: competition with I-125 somatostatin, membranes from CHO-K1 overexpressing SSTR1; read-out: SSTR1 Binding pIC50 (converted)
T2 construct: purchased Perkin Elmer ES-520-M400UA; host or cells: CHO-K1 membranes
T2 sequence (P30872 whole entry): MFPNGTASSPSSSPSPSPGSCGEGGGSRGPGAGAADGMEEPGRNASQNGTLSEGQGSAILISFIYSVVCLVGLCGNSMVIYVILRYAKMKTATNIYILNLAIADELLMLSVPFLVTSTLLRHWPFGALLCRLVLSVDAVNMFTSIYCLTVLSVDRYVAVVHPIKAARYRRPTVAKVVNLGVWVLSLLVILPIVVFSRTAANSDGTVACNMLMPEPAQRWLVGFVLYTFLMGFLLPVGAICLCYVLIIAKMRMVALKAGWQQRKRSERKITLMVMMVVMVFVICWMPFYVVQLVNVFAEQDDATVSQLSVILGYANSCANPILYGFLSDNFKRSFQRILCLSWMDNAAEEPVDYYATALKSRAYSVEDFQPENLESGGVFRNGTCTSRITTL
Method: SSTR1 I-125 Somatostatin Competition Binding Assay for Selectivity Versus SSTR1
Membranes from CHO-K1 cells overexpressing SSTR1 are purchased from Perkin Elmer (catalog number ES-520-M400UA). Test compounds are suspended in DMSO and then diluted in assay buffer (25 mM HEPES pH 7.4, 10 mM MgCl2, 1 mM CaCl2), 0.5% BSA) plus 0.4 nM I-125 labeled somatostatin (Perkin Elmer catalog number NEX389). Fifty μL of compound/I-125 somatostatin in assay buffer are added per well to 96-well poly-propylene plate. Then 10 μg of SSTR1 membranes in 50 μL assay buffer are added per well. The plate is incubated for 60 minutes at room temperature. FilterMat A filters (Perkin Elmer catalog number 1450-421) are pre-soaked in 0.5% PEI (Sigma catalog number P3143). The contents of the assay plate are transferred to filters with a TomTech harvester and washed 5 times with 20 mM HEPES, 100 mM NaCl. The filters are dried in a microwave oven then transferred to sample bag containing a scintillator sheet (Perkin Elmer catalog number 1450-441). The scintillator sheets are melted to the filters using a heat block. The filters are then read in a MicroBeta scintillation counter. Binding Ki curves are generated using Activity Base for Screening Data Management and the results are reported as pIC50.

T1 sequence (P31391 whole entry): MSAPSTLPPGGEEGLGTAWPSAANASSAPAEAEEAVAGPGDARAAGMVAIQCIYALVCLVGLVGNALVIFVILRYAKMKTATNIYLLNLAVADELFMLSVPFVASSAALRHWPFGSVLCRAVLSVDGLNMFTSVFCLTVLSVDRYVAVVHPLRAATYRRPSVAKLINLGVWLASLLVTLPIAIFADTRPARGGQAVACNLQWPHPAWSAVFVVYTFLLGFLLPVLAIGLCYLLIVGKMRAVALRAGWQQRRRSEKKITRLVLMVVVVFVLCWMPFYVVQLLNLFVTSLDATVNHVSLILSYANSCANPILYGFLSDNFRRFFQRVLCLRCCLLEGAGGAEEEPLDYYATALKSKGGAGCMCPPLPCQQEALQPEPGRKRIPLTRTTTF

EC50 (SSTR4 [1]) [nM]	IC50 (SSTR4 [2]) [nM]	IC50 (SSTR1) [nM]	Compound
50.1	794	> 50100	CN1CCC[C@@H]1CC(=O)NC(C)(C)c1nccc2occc12 [Example 39, (R)-N-(2-(furo[3,2-c]pyridin-4-yl)propan-2-yl)-2-(1-methylpyrrolidin-2-yl)acetamide]
50.1	200	20000	CN1CCC[C@@H]1CC(=O)NC(C)(C)c1ccc(Cl)cc1 [Example 40, (R)-N-(2-(4-chlorophenyl)propan-2-yl)-2-(1-methylpyrrolidin-2-yl)acetamide]
3.16	63.1	6310	Cc1cccc2c(C(C)(C)NC(=O)CC3CCCCN3C)noc12 (stereo not drawn) [Example 41, N-(2-(7-methylbenzo[d]isoxazol-3-yl)propan-2-yl)-2-(1-methylpiperidin-2-yl)acetamide]
0.794	3.16	631	Cc1cnc(C(C)(C)NC(=O)CC2CCCCN2C)c2ccccc12 (stereo not drawn) [Example 42, N-(2-(4-methylisoquinolin-1-yl)propan-2-yl)-2-(1-methylpiperidin-2-yl)acetamide]
25.1	158	7940	CN1CCCCC1CC(=O)NC(C)(C)c1cc(Cl)ccc1Cl (stereo not drawn) [Example 45, N-(2-(2,5-dichlorophenyl)propan-2-yl)-2-(1-methylpiperidin-2-yl)acetamide]
12.6	398	25100	Cc1cccnc1OCC(C)(C)NC(=O)C[C@H]1CCCN1C [Example 46, (R)-N-(2-methyl-1-((3-methylpyridin-2-yl)oxy)propan-2-yl)-2-(1-methylpyrrolidin-2-yl)acetamide]
12.6	398	25100	Cc1cccnc1OCC(C)(C)NC(=O)C[C@@H]1CCCN1C [Example 47, (S)-N-(2-methyl-1-((3-methylpyridin-2-yl)oxy)propan-2-yl)-2-(1-methylpyrrolidin-2-yl)acetamide]
25.1	316	15800	CN1CCC[C@H]1CC(=O)NC(C)(C)COc1ncccc1C(F)(F)F [Example 48, (S)-N-(2-methyl-1-((3-(trifluoromethyl)pyridin-2-yl)oxy)propan-2-yl)-2-(1-methylpyrrolidin-2-yl)acetamide]
25.1	200	15800	CN1CCC[C@@H]1CC(=O)NC(C)(C)COc1ncccc1C(F)(F)F [Example 49, (R)-N-(2-methyl-1-((3-(trifluoromethyl)pyridin-2-yl)oxy)propan-2-yl)-2-(1-methylpyrrolidin-2-yl)acetamide]
15.8	126	12600	CCN1CCCC1CC(=O)NC(C)(C)COc1ncccc1C(F)(F)F (stereo not drawn) [Example 50, 2-(1-ethylpyrrolidin-2-yl)-N-(2-methyl-1-((3-(trifluoromethyl)pyridin-2-yl)oxy)propan-2-yl)acetamide]
100	1000	39800	Cc1cccnc1OCC1(NC(=O)C[C@@H]2CCCN2C)CCC1 [Example 55, (S)-N-(1-(((3-methylpyridin-2-yl)oxy)methyl)cyclobutyl)-2-(1-methylpyrrolidin-2-yl)acetamide]
3.98	100	12600	CCN1CCC[C@@H]1CC(=O)NC(C)(C)COc1ncccc1C(F)(F)F [Example 57, (R)-2-(1-ethylpyrrolidin-2-yl)-N-(2-methyl-1-((3-(trifluoromethyl)pyridin-2-yl)oxy)propan-2-yl)acetamide]
100	501	25100	C[C@H](NC(=O)CC1CCCCN1C)c1ccc(Cl)cc1 (stereo partly drawn) [Example 60, N-((S)-1-(4-chlorophenyl)ethyl)-2-(1-methylpiperidin-2-yl)acetamide]
25.1	251	25100	CCN1CCCC1CC(=O)NC(C)(C)COc1ncccc1C (stereo not drawn) [Example 62, 2-(1-ethylpyrrolidin-2-yl)-N-(2-methyl-1-((3-methylpyridin-2-yl)oxy)propan-2-yl)acetamide]
5.01	79.4	1260	Cc1cc2ccccc2c(C(C)(C)NC(=O)C[C@H]2CCCN2C)n1 [Example 70, (R)-N-(2-(3-methylisoquinolin-1-yl)propan-2-yl)-2-(1-methylpyrrolidin-2-yl)acetamide]
31.6	251	25100	Cc1cccnc1OCC1(NC(=O)C(C)C2CCCN2C)CC1 (stereo not drawn) [Example 71, N-(1-(((3-methylpyridin-2-yl)oxy)methyl)cyclopropyl)-2-(1-methylpyrrolidin-2-yl)propanamide]
79.4	3160	> 50100	Cc1cccnc1OCC(C)(C)NC(=O)CC12CCCN1CCC2 [Example 77, N-(2-methyl-1-((3-methylpyridin-2-yl)oxy)propan-2-yl)-2-(tetrahydro-1H-pyrrolizin-7a(5H)-yl)acetamide]
251	10000	> 50100	CC(C)(COc1ncccc1C(F)F)NC(=O)CC12CCCN1CCC2 [Example 78, N-(1-((3-(difluoromethyl)pyridin-2-yl)oxy)-2-methylpropan-2-yl)-2-(tetrahydro-1H-pyrrolizin-7a(5H)-yl)acetamide]
25.1	316	20000	CN1CCC[C@H]1CC(=O)NC(C)(C)c1cccc(Cl)c1Cl [Example 80, (S)-N-(2-(2,3-dichlorophenyl)propan-2-yl)-2-(1-methylpyrrolidin-2-yl)acetamide]
63.1	398	39800	Cc1cccc(C(C)(C)NC(=O)C[C@@H]2CCCN2C)c1Cl [Example 88, (S)-N-(2-(2-chloro-3-methylphenyl)propan-2-yl)-2-(1-methylpyrrolidin-2-yl)acetamide]
39.8	398	25100	Cc1cccc(C(C)(C)NC(=O)C[C@H]2CCCN2C)c1Cl [Example 91, (R)-N-(2-(2-chloro-3-methylphenyl)propan-2-yl)-2-(1-methylpyrrolidin-2-yl)acetamide]
63.1	1000	> 50100	Cc1cccc(C(C)(C)NC(=O)C[C@@H]2CCCN2C)c1C [Example 92, (S)-N-(2-(2,3-dimethylphenyl)propan-2-yl)-2-(1-methylpyrrolidin-2-yl)acetamide]
63.1	398	> 50100	CN1CCC[C@@H]1CC(=O)NC(C)(C)c1cccc(F)c1Cl [Example 94, (R)-N-(2-(2-chloro-3-fluorophenyl)propan-2-yl)-2-(1-methylpyrrolidin-2-yl)acetamide]
15.8	200	15800	CN1CCC[C@@H]1CC(=O)NC(C)(C)c1cccc(Cl)c1Cl [Example 96, (R)-N-(2-(2,3-dichlorophenyl)propan-2-yl)-2-(1-methylpyrrolidin-2-yl)acetamide]
200	1000	> 50100	CC(C)(NC(=O)CC1NCCC1(F)F)c1nccc2ccccc12 (stereo not drawn) [Example 100, 2-(3,3-difluoropyrrolidin-2-yl)-N-(2-(isoquinolin-1-yl)propan-2-yl)acetamide]
